Results reported in patent US20220409727A1, “Metal Complexes Bearing Bisstyryl-Bipyridine Ligand and Their Use as Photosensitizer Agent in One and Two-Photon Photodynamic Therapy” (Paris Sciences et Lettres, priority 2019, published 2022).
Where two headings read alike, the source gives them in different places.

Experiments:
[1] = test system: human glioblastoma astrocytoma (U373) cells; experiment: (Photo-)cytotoxicity on 2D cell monolayers, resazurin assay, U373; conditions: for PI (480 nm): U373, dark vs 480 nm (10 min, 3.1 J/cm^2); for PI (540 nm): U373, dark vs 540 nm (40 min, 9.5 J/cm^2); for IC50: compounds 1-3 as chloride salts
[2] = test system: non-cancerous retinal pigment epithelium (RPE-1) cells; experiment: (Photo-)cytotoxicity on 2D cell monolayers, resazurin assay, RPE-1; conditions: for PI (480 nm): RPE-1, dark vs 480 nm (10 min, 3.1 J/cm^2); for PI (540 nm): RPE-1, dark vs 540 nm (40 min, 9.5 J/cm^2);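 for all read-outs here: cells exposed to compound 4 h, medium exchanged, then irradiated or kept dark, 44 h further growth, viability by resorufin fluorescence (ex 540 nm, em 590 nm)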
Experimental: The human glioblastoma astrocytoma (U373) cell line was cultured in MEM medium supplemented with 10% FBS, 1% NEAA (non-essential amino-acids) and 1% penicillin/streptomycin. […] The human retinal epithelial cells (RPE-1, non-cancerous cells immortalized with hTERT) were cultured in DMEM-F12 medium supplemented with 10% FBS and 1% penicillin/streptomycin. All cell lines were obtained from the American Type Culture Collection (ATCC) and cultured at 37° C. and 5% CO2. Before an experiment, the cells were passaged three times.
The cytotoxicity of the compounds was assessed by measuring cell viability using a fluorometric resazurin assay. The cultivated cells were seeded in triplicates in 96 well plates with a density of 4000 cells per well in 100 μL of media. After 24 h, the medium was removed and the cells were treated with increasing concentrations of the compound diluted in cell media achieving a total volume of 200 μL. The cells were incubated with the compound for 4 h. After this time, the media was removed and replaced with 200 μL of fresh medium. For the phototoxicity studies, the cells were exposed to light with an Atlas Photonics LUMOS BIO irradiator. Each well was constantly illuminated with either a 480 nm or 540 nm irradiation. During this time, the temperature was maintained constantly at 37° C. The cells were grown in the incubator for additional 44 h. For the determination of the dark cytotoxicity, the cells were not irradiated and after the medium exchange directly incubated for 44 h. After this time, the medium was replaced with fresh medium containing resazurin with a final concentration of 0.2 mg/mL. After 4 h incubation, the amount of the fluorescent product resorufin was determined upon excitation at 540 nm and measurement its emission at 590 nm using a SpectraMax M2 Microplate Reader (Molecular Devices).
The obtained data was analyzed with the GraphPad Prism software.

[3] = test system: human glioblastoma astrocytoma (U373) cells
HeLa MCTS = experiment: (Photo-)cytotoxicity on 3D multicellular tumor spheroids (ATP, CellTiter-Glo 3D); type: cell-based, human; conditions: for PI (1-Photon): dark vs 1-Photon irradiation (500 nm, 10 J/cm^2); for PI (2-Photon): dark vs 2-Photon irradiation (800 nm, 10 J/cm^2); for phototoxicity in HeLa MCTS: 1 Photon and 2 Photons irradiation, compared with compounds 4-6, 8, 10
Experimental: autoclave. The hot emulsion was transferred into wells (50 μL per well) of a 96 cell culture well plate. The plates were exposed for 3 h to UV irradiation to ensure the sterility and allow the agarose solution to cool down. After this time, the agarose was overlayed with a HeLa cell suspension at a density of 3000 cells per well in 150 μL of media. The MCTS were cultivated and maintained at 37° C. in a cell culture incubator at 37° C. with 5% CO2 atmosphere. The culture media was replaced every two days. Within two-three days MCTs were formed from the cell suspension. The formation as well as integrity, diameter and volume of the MCTs was monitored by an Axio Observer Z1 (Carl Zeiss) phase contrast microscope. The volume was calculated using the following formula: V=4/3πr^3. The luminescence images along the z-axis were captured by a one-(λex=458 nm, λem=600-750 nm) or two-photon (λex=800 nm, λem=600-750 nm) excitation in the z-stack mode with a an LSM 880 (Carl Zeiss) laser scanning confocal microscope equipped with Argon and a Coherent Chameleon 2-Photon laser and a GaAsP detector.
The cytotoxicity of the compounds in 3D multicellular tumor spheroids (MCTS) was assessed by measurement of the ATP concentration. MCTS were treated with increasing concentrations of the compound (2% DMSO, v %) by replacing 50% of the media with drug supplemented media and incubation for 12 h. After this time, the MCTS were divided in three identical groups. The first group was strictly kept in the dark. The second group was exposed to a one-photon irradiation (500 nm, 10 J/cm^2) using a LED and the third group was exposed to a two-photon irradiation (800 nm, 10 J/cm^2) with a section interval of 5 μm using a LSM 880 (Carl Zeiss, Germany) laser scanning confocal microscope equipped with a Coherent Chameleon 2-Photon laser. After the irradiation, all groups were incubated additional 48 h. The ATP concertation was measured using a CellTiter-Glo 3D Cell Viability kit (Promega) by measuring the generated chemiluminescence with an infinite M200 PRO (Tecan) plate reader.

[4] = read-out: IC50 480 nm (10 min, 3.1 J/cm^2), U373, irradiation 480 nm (10 min, 3.1 J/cm^2)
[5] = read-out: IC50 dark, U373, dark, 4 h incubation
[6] = 1-Photon irradiation (500 nm, 10 J/cm^2), read-out: IC50 1-Photon irradiation (500 nm, 10 J/cm^2)
[7] = 2-Photon irradiation (800 nm, 10 J/cm^2, section interval of 5 μm), read-out: IC50 2-Photon irradiation (800 nm, 10 J/cm^2)
[8] = dark, 12 h incubation, read-out: IC50 dark

Structure (SMILES) | PI (480 nm) [1] | PI (540 nm) [1] | IC50 [1, 4] [µM] | IC50 [1, 5] [µM] | PI (480 nm) [2] | PI (540 nm) [2] | IC50 [3] [µM] | IC50 (HeLa MCTS; [6]) [µM] | IC50 (HeLa MCTS; [7]) [µM] | PI (1-Photon) (HeLa MCTS) | PI (2-Photon) (HeLa MCTS) | IC50 (HeLa MCTS; [8]) [µM] | phototoxicity in HeLa MCTS (HeLa MCTS)
CN(C)c1ccc(/C=C/c2ccnc(-c3cc(/C=C/c4ccc(N(C)C)cc4)ccn3)c2)cc1.CN(C)c1ccc(/C=C/c2ccnc(-c3cc(/C=C/c4ccc(N(C)C)cc4)ccn3)c2)cc1.F[P-](F)(F)(F)(F)F.F[P-](F)(F)(F)(F)F.[Ru+2].c1ccc(-c2ccccn2)nc1 [Compound 4, [Ru(bipy)((E,E′)-4,4′-Bis[p-(N,N-dimethylamino)styryl]-2,2′-bipyridine)2][PF6]2] | >7.0 | >5.3 | 14.3 ± 2.4 | > 100 | >9.2 | >6.8 | 19 ± 2.8 | 78.3 ± 5.1 | 63 ± 4.2 | >1.3 | >1.6 | > 100 | –
COc1ccc(/C=C/c2ccnc(-c3cc(/C=C/c4ccc(OC)cc4)ccn3)c2)cc1.COc1ccc(/C=C/c2ccnc(-c3cc(/C=C/c4ccc(OC)cc4)ccn3)c2)cc1.F[P-](F)(F)(F)(F)F.F[P-](F)(F)(F)(F)F.[Ru+2].c1ccc(-c2ccccn2)nc1 [Compound 5, [Ru(bipy)((E,E′)-4,4′-Bis[p-methoxystyryl]-2,2′-bipyridine)2][PF6]2] | >6.5 | >5.6 | 15.3 ± 2.2 | > 100 | >9.8 | >7.9 | 17.8 ± 3.2 | 19.3 ± 2.7 | 13.4 ± 3.9 | >5.2 | >7.5 | > 100 | –
CN(C)c1ccc(/C=C/c2ccnc(-c3cc(/C=C/c4ccc(N(C)C)cc4)ccn3)c2)cc1.F[P-](F)(F)(F)(F)F.F[P-](F)(F)(F)(F)F.[Ru+2].c1ccc(-c2ccccn2)nc1.c1ccc(-c2ccccn2)nc1 [Compound 6, [Ru(bipy)2((E,E′)-4,4′-Bis[p-(N,N-dimethylamino)styryl]-2,2′-bipyridine)][PF6]2] | >12.0 | >9.3 | 8.3 ± 1.1 | > 100 | >13.7 | >12.3 | 10.7 ± 1.9 | 33.8 ± 3.4 | 26.5 ± 2.9 | >8.9 | >11.3 | > 300 | –
CN(C)c1ccc(/C=C/c2ccnc(-c3cc(/C=C/c4ccc(N(C)C)cc4)ccn3)c2)cc1.F[P-](F)(F)(F)(F)F.F[P-](F)(F)(F)(F)F.[Ru+2].c1cnc2c(c1)ccc1cccnc12.c1cnc2c(c1)ccc1cccnc12 [Compound 8, [Ru(phen)2((E,E′)-4,4′-Bis[p-(N,N-dimethylamino)styryl]-2,2′-bipyridine)][PF6]2] | >8.5 | >7.5 | 11.7 ± 1.5 | > 100 | >10.9 | >6.4 | 13.3 ± 2.4 | 32.6 ± 2.5 | 27.8 ± 3.1 | >9.2 | >10.8 | > 300 | –
COc1ccc(/C=C/c2ccnc(-c3cc(/C=C/c4ccc(OC)cc4)ccn3)c2)cc1.F[P-](F)(F)(F)(F)F.F[P-](F)(F)(F)(F)F.[Ru+2].c1cnc2c(c1)ccc1cccnc12.c1cnc2c(c1)ccc1cccnc12 [Compound 9, [Ru(phen)2((E,E′)-4,4′-Bis[p-methoxystyryl]-2,2′-bipyridine)][PF6]2] | >40.0 | >47.6 | 2.5 ± 0.9 | > 100 | >41.7 | >47.6 | 2.1 ± 0.7 | 7.5 ± 0.2 | 1.2 ± 0.3 | >40.0 | >250.0 | > 300 | much higher phototoxicity
CN(C)c1ccc(/C=C/c2ccnc(-c3cc(/C=C/c4ccc(N(C)C)cc4)ccn3)c2)cc1.F[P-](F)(F)(F)(F)F.F[P-](F)(F)(F)(F)F.[Ru+2].c1ccc(-c2ccnc3c2ccc2c(-c4ccccc4)ccnc23)cc1.c1ccc(-c2ccnc3c2ccc2c(-c4ccccc4)ccnc23)cc1 [Compound 10, [Ru(4,7-Diphenyl-1,10-phenanthroline)2((E,E′)-4,4′-Bis[p-(N,N-dimethylamino)styryl]-2,2′-bipyridine)][PF6]2] | 7.6 | 6.5 | 1.8 ± 0.3 | 13.7 ± 1.1 | 8.7 | 7.4 | 2.1 ± 0.4 | 8.9 ± 0.7 | 3.1 ± 0.6 | 3.1 | 9.0 | 27.8 ± 3.6 | –
COc1ccc(C=Cc2ccnc(-c3cc(C=Cc4ccc(OC)cc4)ccn3)c2)cc1.F[P-](F)(F)(F)(F)F.F[P-](F)(F)(F)(F)F.[Ru+2].c1ccc(-c2ccnc3c2ccc2c(-c4ccccc4)ccnc23)cc1.c1ccc(-c2ccnc3c2ccc2c(-c4ccccc4)ccnc23)cc1 [Compound 11, [Ru(4,7-Diphenyl-1,10-phenanthroline)2((E,E′)-4,4′-Bis[p-methoxystyryl]-2,2′-bipyridine)][PF6]2] | 20.6 | 26.4 | 0.9 ± 0.2 | 18.5 ± 1 | 23.1 | 29.7 | 0.7 ± 0.3 | 3.8 ± 0.4 | 0.8 ± 0.5 | 7.7 | 36.6 | 29.3 ± 2.9 | much higher phototoxicity
